Test results reported in publication PMC3806773, “Discovery of P1736, a Novel Antidiabetic Compound That Improves Peripheral Insulin Sensitivity in Mice Models” (PLoS ONE, 2013).
“Also recorded” adds a separate entry of the source. Where a name gives a salt, the structure may show the parent alone. Marks after values point to notes of the source that are not given here. Blank lines part the entries; values can stand above or below the compound they belong to.

How the values were obtained:
[1] = tested on: insulin resistant 3T3 adipocytes; assay: Glucose uptake in dexamethasone-induced insulin resistant 3T3 adipocytes; format: cell-based; conditions: for EC50: Adipocyte, dose response, insulin resistant adipocytes, read-out: EC50 of increase in glucose uptake
Protocol: Fully differentiated 3T3 adipocytes generated in 24-well plates were used after day 8 of differentiation. Insulin resistance was induced essentially as described before. Briefly, adipocytes were incubated with 100 nM dexamethasone for six consecutive days. […].
Glucose uptake was measured essentially according to the method of Gao et al using ^14C-labeled 2-deoxy glucose as the tracer. Activity in this assay is defined as a statistically significant increase in glucose uptake of minimum 50% compared to the uptake seen in cells exposed to vehicle. Effect of wortmannin on glucose uptake was studied according to the method of Hausdorff et al using 100 nM wortmannin.

db/db mice [2] = assay: Antidiabetic activity in db/db mice, once daily oral dosing; format: in vivo; conditions: for decrease in plasma triglyceride / reduction in plasma glucose / plasma adiponectin levels: 150 mg/kg oral once daily; for plasma adiponectin levels: vehicle 7.5 ± 0.44; for Liver weight / Plasma ALT / Plasma AST: 150mg/kg; for Liver weight: vehicle 1.8 + 0.10; for Plasma ALT: vehicle 91.2 + 12.7; for Plasma AST: vehicle 100.6 + 8.8; for reduction of high initial plasma glucose: db/db mice with high initial plasma glucose, 150 mg/kg once daily, 10 days
Protocol: After two weeks of acclimatization, db/db mice were deprived of food for 4h. Their weights were measured and blood was obtained by retro-orbital puncture for the determination of plasma glucose. The animals were randomized into groups (7-10/group) based on body weight and plasma glucose levels. Animals were dosed orally once a day, between 9.00 -10.00am for 15 consecutive days, with either P1736 (150mg/kg) or metformin (150mg/kg) or 0.5% carboxy methyl cellulose (CMC) vehicle. The dose of 150 mg/kg was chosen for once-a-day dosing of P1736, on the basis of its pharmacokinetic profile and to maintain high plasma concentrations. Body weight was measured daily. On days 10 and 15, blood samples were collected at the end of the 4h fasting after drug administration. Plasma samples were analysed for biochemical parameters, by enzymatic methods using autoanalyser 902(Hitachi instruments, Japan). Plasma adiponectin levels were measured using mouse ELISA kits (Millipore Inc. USA).

[3] = tested on: soleus muscles of ob/ob mice; assay: Ex vivo muscle glucose uptake in ob/ob mice; conditions: for Glucose Uptake in soleus muscle (% Increase): ex vivo after chronic administration
Protocol: (§1) On day 9, food was withheld for 4 h and blood was collected for the analysis of plasma chemistry and plasma insulin levels. On days 12 and 13, 3-4 animals from each group were sacrificed and soleus muscles were excised. Radiolabelled glucose uptake was measured in the isolated soleus muscles by the method of Zierath and colleagues. Plasma Insulin was estimated using mouse ELISA kit (Linco, USA)

ob/ob mice [4] = assay: Antidiabetic activity in ob/ob mice; format: in vivo; conditions: 10 days
GLUT-4 = GLUT-4 translocation in insulin resistant 3T3 adipocytes (immunofluorescence); conditions: 4 days, 200nM insulin stimulated
3T3-L1 cells = assay: Adipogenesis screen; format: cell-based
Protocol: Adipogenesis screening was carried out essentially according to the method of Choi et al. […] Compounds that caused increase in adipogenesis by more than 5-fold of vehicle (0.1% DMSO) were considered positive and were selected for further screening.

[5] = target: T1, protein tyrosine phosphatase-1b (PTP-1B) (Homo sapiens, UniProt P18031); assay: PTP-1B activity (MDS Pharma); format: biochemical
T1 construct: MDS Pharma, Korea (contract laboratory)
T1 sequence (P18031 1-435): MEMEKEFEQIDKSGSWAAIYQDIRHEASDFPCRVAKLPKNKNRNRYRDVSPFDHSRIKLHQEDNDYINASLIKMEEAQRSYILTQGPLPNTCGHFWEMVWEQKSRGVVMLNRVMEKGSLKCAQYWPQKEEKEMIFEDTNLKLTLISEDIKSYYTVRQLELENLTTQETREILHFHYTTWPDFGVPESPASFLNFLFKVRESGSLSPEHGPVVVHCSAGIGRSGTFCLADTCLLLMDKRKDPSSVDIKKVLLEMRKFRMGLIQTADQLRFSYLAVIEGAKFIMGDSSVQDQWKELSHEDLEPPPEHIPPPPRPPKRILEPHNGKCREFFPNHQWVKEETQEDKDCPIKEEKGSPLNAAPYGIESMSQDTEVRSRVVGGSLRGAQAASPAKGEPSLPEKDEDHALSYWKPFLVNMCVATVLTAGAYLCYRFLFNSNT
Protocol: (§2) Transactivation activity against human PPARγ and PPARα receptors was determined using luciferase reporter gene assays in the Laboratory of CloneGen Biotechnology, Michigan, USA. Activities of protein tyrosine phosphatase-1b (PTP-1B) and adenosine mono phosphate activated kinase (AMPK) were evaluated at MDS Pharma, Korea. Evaluation of activity against human 11-Hydroxysteroid dehydrogenase-1 was outsourced to University of Edinburg, UK which used a cell based method.

[6] = tested on: adenosine mono phosphate activated kinase (AMPK); assay: AMPK activity (MDS Pharma); format: biochemical
Protocol: as §2

[7] = target: T2, human 11<beta>-Hydroxysteroid dehydrogenase-1 (Homo sapiens, UniProt P28845); assay: 11beta-HSD1 cell based inhibition assay; conditions: concentration not given
T2 construct: University of Edinburgh, UK (outsourced)
Protocol: as §2

[8] = tested on: panel of membrane receptors, ion channels and enzymes; assay: Screen against a panel of membrane receptors, ion channels and enzymes
db/db mice [9] = assay: Dose response experiment in db/db mice, twice daily dosing; format: in vivo; conditions: for weight gain / decrease in plasma glucose / decrease in plasma triglyceride: 5 mg/kg twice daily; for weight gain: 15 days; for decrease in plasma glucose / decrease in plasma triglyceride: day 15
Protocol: The doses were given during 8.00-9.00 am and 5.00-6.00 pm daily. On day 15, blood was collected and plasma samples were analysed as described above.

ob/ob mice [10] = assay: Antidiabetic activity in ob/ob mice; format: in vivo; conditions: for Liver weight: vehicle 4.3 ± 0.2; for Plasma AST: vehicle 468 ± 38; for Plasma ALT: vehicle 740 ± 71
Protocol: After one week of acclimatization, ob/ob mice (8/group) were dosed orally, twice daily for 10 consecutive days, with either P1736 (100 or 200 mg/kg) or vehicle. Rest of the procedure is exactly the same as that used for db/db mice and as described above.
as §1

Wistar rats = assay: Plasma volume in rats (Evans Blue Dye method)
human PPARα receptor = target: T3, human PPARα receptor (Homo sapiens, UniProt Q07869); assay: PPARα transactivation luciferase reporter gene assay in HEK-293 cells; conditions: upto 10 μM
T3 sequence (Q07869 239-466 limits assumed): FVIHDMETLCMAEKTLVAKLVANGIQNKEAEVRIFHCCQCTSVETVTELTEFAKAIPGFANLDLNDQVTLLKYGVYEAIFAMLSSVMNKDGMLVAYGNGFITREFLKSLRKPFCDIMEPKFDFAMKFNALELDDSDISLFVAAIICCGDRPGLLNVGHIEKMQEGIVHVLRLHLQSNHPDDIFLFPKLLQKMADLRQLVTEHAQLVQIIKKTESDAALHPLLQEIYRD

human PPARγ receptor = target: T4, human PPARγ receptor (Homo sapiens, UniProt P37231); assay: PPARγ transactivation luciferase reporter gene assay in HEK-293 cells; conditions: upto 10 μM
T4 sequence (P37231 238-503 limits assumed): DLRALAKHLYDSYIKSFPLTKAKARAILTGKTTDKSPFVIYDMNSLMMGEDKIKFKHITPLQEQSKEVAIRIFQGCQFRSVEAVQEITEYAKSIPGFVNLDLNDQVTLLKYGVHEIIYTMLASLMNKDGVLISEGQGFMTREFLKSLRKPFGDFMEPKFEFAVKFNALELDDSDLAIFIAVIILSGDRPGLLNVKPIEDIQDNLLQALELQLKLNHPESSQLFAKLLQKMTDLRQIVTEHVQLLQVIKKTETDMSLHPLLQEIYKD

T2 sequence (P28845 whole entry): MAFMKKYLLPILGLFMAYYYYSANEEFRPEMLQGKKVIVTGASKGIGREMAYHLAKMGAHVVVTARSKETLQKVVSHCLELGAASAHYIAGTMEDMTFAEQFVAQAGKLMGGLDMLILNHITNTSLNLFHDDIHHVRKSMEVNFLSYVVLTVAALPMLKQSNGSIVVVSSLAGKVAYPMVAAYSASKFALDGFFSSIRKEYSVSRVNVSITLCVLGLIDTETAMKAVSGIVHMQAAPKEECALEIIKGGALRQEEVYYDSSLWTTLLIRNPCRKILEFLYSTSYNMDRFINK

- Liver weight (db/db mice [2]): 2.1 + 0.08 gm
SMILES: CN(C)C(=N)N=C(N)N [Metformin, Metformin hydrochloride, reference compound]
- effect on glucose uptake ([1]; 1.0 mM, 4 days exposure): no effect
- decrease in plasma triglyceride (db/db mice [2]; day 10): 18%
- reduction in plasma glucose (db/db mice [2]; day 10): 24%
- decrease in plasma triglyceride (db/db mice [2]; day 15): 31%
- reduction in plasma glucose (db/db mice [2]; day 15): 25%
- plasma adiponectin levels (db/db mice [2]): 8.9 ± 0.64 µg/mL
- Plasma ALT (db/db mice [2]): 75.3 + 6.4 U/L
- Plasma AST (db/db mice [2]): 101.7 + 8.4 U/L
- reduction of high initial plasma glucose (db/db mice [2]): 25%
- Plasma Glucose (% Reduction) ([3]; 150.0 mg/kg): 37%
- Glucose Uptake in soleus muscle (% Increase) ([3]; 150.0 mg/kg): 38* %
- Glucose Uptake in soleus muscle (% Increase) ([3]; 150.0 mg/kg, listed as metformin): 38%
- lowering of plasma insulin levels (ob/ob mice [4]; 150 mg/kg): 43%
- GLUT-4 translocation to plasma membrane (GLUT-4; 1 mM): inactive

- activity against PTP-1B [5]: no significant activity
- activity against AMPK [6]: no significant activity
- inhibitory activity towards 11<beta>-Hydroxysteroid dehydrogenase-1 [7]: 50%
- activity against panel targets [8]: no significant activity
- Liver weight (db/db mice [2]): 2.1+ 0.10 gm
- Liver weight (ob/ob mice [10]; 100mg/kg): 4.6 ± 0.2 gm
- Liver weight (ob/ob mice [10]; 200mg/kg): 4.4 ± 0.3 gm
- normalized plasma volume (Wistar rats; female rats, 100 mg/kg once daily 28 days, control 35.56 ± 1.46): 30.91 ± 0.03 mL/kg
- normalized plasma volume (Wistar rats; female rats, 300 mg/kg once daily 28 days, control 35.56 ± 1.46): 33.02 ± 0.28 mL/kg
- normalized plasma volume (Wistar rats; male rats, 100 mg/kg once daily 28 days, control 33.44 ± 1.52): 31.55 ± 0.27 mL/kg
- normalized plasma volume (Wistar rats; male rats, 300 mg/kg once daily 28 days, control 33.44 ± 1.52): 29.15 ± 0.02 mL/kg
- PPARα transactivation (human PPARα receptor): did not activate
- PPARγ transactivation (human PPARγ receptor): no significant transactivation ability
SMILES: O=S(=O)(Nc1cnc(Oc2cc3ccccc3cn2)c(Cl)c1)c1ccc(Cl)cc1Cl [P1736]
- result in adipogenesis screen (3T3-L1 cells; 43 µM, positive = increase in adipogenesis by more than 5-fold of vehicle): positive
- stimulation of glucose uptake after pretreatment with wortmannin ([1]; 10 µM compound, 100 nM wortmannin for 30 minutes): abolished
- increase in glucose uptake compared to insulin resistant vehicle ([1]; 10 µM, 4 days exposure): more than 2 fold
- EC50 [1]: 400 nM
- decrease in plasma triglyceride (db/db mice [2]; day 10): 30%
- reduction in plasma glucose (db/db mice [2]; day 10): 35%
- decrease in plasma triglyceride (db/db mice [2]; day 15): 38%
- reduction in plasma glucose (db/db mice [2]; day 15): 35%
- plasma adiponectin levels (db/db mice [2]): 12.4 ± 0.33 µg/mL
- effect on body weight (db/db mice [2]; 150 mg/kg, 15 days): did not affect body weight
- Plasma ALT (db/db mice [2]): 99.0 + 8.5 U/L
- Plasma AST (db/db mice [2]): 84.6 + 2.6 U/L
- reduction of high initial plasma glucose (db/db mice [2]): 23%
- effect on plasma glucose and triglyceride levels over the dose range (db/db mice [9]; 5 mg/kg to 200 mg/kg twice daily, EC50 could not be established): all the doses reduced plasma glucose and triglyceride levels
- weight gain (db/db mice [9]): did not exhibit any tendency towards weight gain
- decrease in plasma glucose (db/db mice [9]): 40%
- decrease in plasma triglyceride (db/db mice [9]): 32%
- reduction in plasma glucose (ob/ob mice [10]; 100 mg/kg twice daily, 10 days): 30%
- lowering of plasma insulin levels (ob/ob mice [10]; 100 mg/kg, 10 days): 50%
- Plasma AST (ob/ob mice [10]; 100mg/kg): 547 ± 50 U/L
- Plasma ALT (ob/ob mice [10]; 100mg/kg): 857 ± 72 U/L
- reduction in plasma glucose (ob/ob mice [10]; 200 mg/kg twice daily, 10 days): 32%
- Plasma AST (ob/ob mice [10]; 200mg/kg): 470 ± 57 U/L
- Plasma ALT (ob/ob mice [10]; 200mg/kg): 668 ± 92 U/L
- decrease in glucose (ob/ob mice [10]; ob/ob mice, dose not stated (abstract)): 30-35%
- changes in body weight (ob/ob mice [10]; upto 200 mg/kg twice daily): did not induce adverse changes
- Plasma Glucose (% Reduction) ([3]; 1.0 mg/kg): 34%
- Glucose Uptake in soleus muscle (% Increase) ([3]; 1.0 mg/kg): 70%
- Glucose Uptake in soleus muscle (% Increase) ([3]; 1.0 mg/kg, listed as P1736-05): 70* %
- Plasma Glucose (% Reduction) ([3]; 5.0 mg/kg): 35%
- Glucose Uptake in soleus muscle (% Increase) ([3]; 5.0 mg/kg): 67%
- Glucose Uptake in soleus muscle (% Increase) ([3]; 5.0 mg/kg, listed as P1736-05): 67* %
- lowering of plasma insulin levels (ob/ob mice [4]; 5 mg/kg): 40%
- effect on plasma volume or body weights (Wistar rats; oral, 28 days, male and female normal Wistar rats): did not cause significant increase
- GLUT-4 translocation to plasma membrane (GLUT-4; 10 µM): induced translocation; also recorded: complete translocation

- weight gain (db/db mice [9]): 13%
SMILES: CN(CCOc1ccc(CC2SC(=O)NC2=O)cc1)c1ccccn1 (stereo not drawn) [Rosiglitazone, rosiglitazone maleate, reference compound]
- adipogenesis (3T3-L1 cells; 1.0 µM, positive control, vehicle induced 7-10%): > 90%
- EC50 [1]: 20 nM
- effect on glucose uptake ([1]; rosiglitazone 0.1 µM): potentiated glucose uptake and re-sensitized the cells
- decrease in plasma glucose (db/db mice [9]): 60%
- decrease in plasma triglyceride (db/db mice [9]): 40%
- decrease in plasma glucose (db/db mice [9]; listed as rosiglitazone): about 60%
- Plasma Glucose (% Reduction) ([3]; 5.0 mg/kg): 49%
- Glucose Uptake in soleus muscle (% Increase) ([3]; 5.0 mg/kg): 147** %
- Glucose Uptake in soleus muscle (% Increase) ([3]; 5.0 mg/kg, listed as rosiglitazone): 147%
- lowering of plasma insulin levels (ob/ob mice [4]; 5 mg/kg): 80%
- GLUT-4 translocation to plasma membrane (GLUT-4; 0.1 µM): caused GLUT-4 translocation
